Series [1] deals with MDA-MB-231 cells. The series can be described thus: Matrigel invasion assay (Boyden chamber). Conditions: MDA-MB-231, Boyden chamber, matrigel. The format is cell-based, human. How it is done: d) Migration and Matrigel Invasion Assay
Chemoinvasion assay was performed in Boyden chamber as described by Albini et al (Cancer Res, 1987) with some modifications. Polycarbonate membranes with 8μm pores were coated with matrigel (125 μg/cm^2) at room temperature for 48 h. Two hours before experiments, the matrix was […] with serum-free medium containing 0.1% BSA.
One day after seeding, 10^6 MDA-MB-231 cells were treated overnight with different concentrations of compounds (1, 10, 17.5, 25 and 50 μM). Cells were collected with Versene (Invitrogen), counted with trypan blue exclusion, rinsed twice in serum-free medium containing 0.1% BSA and resuspended in serum-free medium containing 0.1% BSA plus the appropriate concentration of compound. 10^5 treated cells were placed in the upper chamber. Medium containing 10% of FBS plus the appropriate concentration of compound was placed in the lower chamber as a chemoattractant. The Boyden chamber was incubated 6 hours at 37° C. before the cells were fixed and stained with Diff-Quick (Dade-Berhing). Cells on the upper part of the filters were removed using a cotton swab. Cells on the underside of the filters were visualised and counted under light microscope. The migration assay was performed the same way, using non-coated filters.

For series [2], the system named is MDA231. Kind of series: Cytoskeleton analysis, actin staining. The format is cell-based, human. On the procedure:
(§1) Since major rearrangements of cytoskeleton are observed in tumor cells and since the small GTPases are known to regulate these events, analysis of actin cytoskeleton was performed. Subconfluent cells seeded onto coverslips were treated with different concentration of compound (1, 10, 17.5, 25 and 50 μM) or vehicle for 24 h, before being fixed in 4% formaldehyde for 15 min., permeabilized in 0.2% Triton X100 for 5 minutes and incubated in PowerBlock (Biogenex) for 10 min. Actin filaments were stained with 0.5 μg/ml fluorescein isothiocyanate (FITC)-labelled phalloidin for 1 hour. Analysis was performed using an inverted fluorescent microscope.

Series [3] concerns NIH3T3. The series can be described thus: Cytoskeleton analysis, actin staining. The format is cell-based, mouse. On the procedure:
as §1

The subject of series [4] is NIH3T3 cells transfected with RasV12. The series can be described thus: Colony formation assay in the presence of constitutively activated Ras (RasV12). Conditions: NIH3T3, neoR colonies. On the set-up: key to Colony formation: −: no effect of the compound was observed; +: an effect of the compound was observed. Format: cell-based, mouse. On the procedure:
c) Ras/Rac-dependant Signaling Pathway Analysis
The impact of the compounds on Ras and Rac signaling pathways was analysed with two reporter systems described by Imler (Nature 1988) and Lin (Science, 1995) respectively on one hand, and by a colony formation assay in the presence of constitutively activated Ras (RasV12) and Rac (RacV12) on the other hand. For this latter experiment, fifty percent confluent NIH3T3 cells in a 10 cm diameter petri dish were transfected with 0.5 μg pSV2-RasV12 or 0.5 μg pEXV RacV12 plasmids plus 100 ng of pSV2-neomycin plasmid using Lipofectamine-Plus reagent (Invitrogen) according to the manufacturer's instructions. Forty-eight hours later, cells were trypsinised, splitted to 1/3, and incubated in the presence of complete medium supplemented with 400 μg/ml geneticin (Invitrogen) and different doses of compound (1, 10, 17.5, 25 and 50 μM) until emerging resistant clones appear (2-3 weeks). The medium was renewed every 3 days. Colonies with a minimum of 50 cells were counted after staining with Fuschin 2%.

“Also recorded” adds a separate entry of the source.

We go through 25 compounds from patent US6552073B1, “Compounds and methods of treating cell proliferative diseases” (Exonhit Therapeutics SA, priority 2002, dated 2003).

Consider `O=C(O)c1cc(=O)c(OCCCCOc2ccc(Cl)c(Cl)c2)co1` [EH20700, 5-[4-(3,4-Dichlorophenyloxy)butyloxy]-4-oxo-4H-pyran-2-carboxylic acid], for which the melting point was 182 to 183 °C.
The same measure, in the same setting: as for `O=C(O)c1cc(=O)c(OCCCCCOc2ccc(Cl)c(Cl)c2)co1` [EH6600, 5-[5-(3,4-Dichlorophenyloxy)pentyloxy]-4-oxo-4H-pyran-2-carboxylic acid], the figure is 159 to 161 °C.
For `O=C(NCc1ccccc1)c1cc(=O)c(OCCCCCOc2ccc(Cl)cc2)co1` [EH28900, N-Benzyl-5-[5-(4-Chlorophenyloxy)pentyloxy]-4-oxo-4H-pyran-2-carboxamide], the melting point is 125 to 126 °C.
Take `C/C=C/c1oc(C(=O)O)cc(=O)c1OCCCCCOc1ccc(Cl)c(Cl)c1CCC` [EH22501, (E)-3-[5-(3,4-Dichloro-2-propylphenyloxy)pentyloxy]-2-(propen-1-yl)-4-oxo-4H-pyran-6-carboxylic acid]: the melting point fell in the range of 161 to 162 °C.
Still for that read-out and setting: as for `CCOc1ccccc1OCCCCCOc1coc(C(=O)O)cc1=O` [EH4701, 5-[5-(2-Ethyloxyphenyloxy)pentyloxy]-4-oxo-4H-pyran-2-carboxylic acid], the figure is 141 to 142 °C.
As to `C/C=C/c1oc(C(=O)O)cc(=O)c1OCCCCCOc1ccccc1CCC` [EH15301, (E)-2-(Propen-1-yl)-3-[5-(2-propylphenyloxy)pentyloxy]-4-oxo-4H-pyran-6-carboxvlic acid], the melting point lay within 145 to 146 °C.
Compound `O=c1cc(COCc2ccccc2)occ1OCCCCCOc1ccc(Cl)c(Cl)c1` [EH7701, 2-(Benzyloxymethyl)-5-[5-(3,4-dichlorophenyloxy)pentyloxy]-4H-pyran-4-one] yielded a melting point of 82 to 83 °C. In series [1], the Invasion entry is on record as “No significant effect”. Moreover, the “Cell architecture modification, actin staining MDA231, general observation” value in series [2] is “cell spreading”.
For `C/C=C/c1oc(C(=O)O)cc(=O)c1OCCCCCOc1ccc(Cl)c(Cl)c1` [EH10501, (E)-3-[5-(3,4-Dichlorophenyloxy)pentyloxy]-2-(propen-1-yl)-4-oxo-4H-pyran-6-carboxylic acid], the melting point is 118 to 119 °C.
For `CCCc1ccccc1OCCCCCOc1coc(C(=O)O)cc1=O` [EH26900, 5-[5-(2-Propylphenyloxy)pentyloxy]-4-oxo-4H-pyran-2-carboxylic acid], the melting point was in the range of 145 to 146 °C.
On to `CCCc1c(OCCCCCCCOc2coc(CO)cc2=O)ccc(Cl)c1Cl` [EH17701, 5-[7-(3,4-Dichloro-2-propylphenyloxy)heptyloxy]-2-(hydroxymethyl)-4H-pyran-4-one], for which the melting point is 62 to 64 °C. For the same compound, the “Cell architecture modification, actin staining MDA231, general observation” value in series [2] was “cell spreading”.
`O=C(O)c1cc(=O)c(OCCCCCOc2ccc(Cl)cc2)co1` [EH17600, 5-[5-(4-Chlorophenyloxy)pentyloxy]-4-oxo-4H-pyran-2-carboxylic acid] returned a melting point of 154 to 156 °C.
Take `O=c1cc(CO)occ1OCCCCCOc1ccc(Cl)c(Cl)c1` [EH5500, 5-[5-(3,4-Dichlorophenyloxy)pentyloxy]-2-(hydroxymethyl)-4H-pyran-4-one]: the melting point fell in the range of 97 to 99 °C. Further, the “Cell architecture modification, actin staining NIH3T3, general observation” value in series [3] is “affected the general morphology; also recorded: cell destructuration”. The Colony formation result in series [4] is reported as “−”.
`C/C=C/c1oc(CO)cc(=O)c1OCCCCCOc1ccccc1CCC` [EH9301, (E)-6-(Hydroxymethyl)-2-(propen-1-yl)-3-[5-(2-propylphenyloxy)pentyloxy]-4H-pyran-4-one]: the melting point fell in the range of 67 to 68 °C. The Colony formation result in series [4] was “−”. The Invasion result in series [1] was “No significant effect”.
`C/C=C/c1oc(CO)cc(=O)c1OCCCCCOc1cccc(Cl)c1` [EH16201, (E)-3-[5-(3-Chlorophenyloxy)pentyloxy]-6-(hydroxymethyl)-2-(propen-1-yl)-4H-pyran-4-one]: the melting point lay in the range of 50 to 51 °C.
For `CCCc1cc(Cl)c(Cl)cc1OCCCCCOc1coc(CO)cc1=O` [EH30701, 5-[5-(4,5-Dichloro-2-propylphenyloxy)pentyloxy]-2-(hydroxymethyl)-4H-pyran-4-one], the melting point was in the range of 83 to 84 °C. For the same compound, in series [2], the “Cell architecture modification, actin staining MDA231, general observation” value is recorded as “cell spreading”.
Consider `O=c1cc(CO)occ1OCCCCOc1ccc(Cl)c(Cl)c1` [EH17700, 5-[4-(3,4-Dichlorophenyloxy)butyloxy]-2-(hydroxymethyl)-4H-pyran-4-one], for which the melting point was 107 to 108 °C. In addition, the Colony formation entry in series [4] was “−”.
Consider `O=c1cc(CO)occ1OCCCCCOc1cccc(Cl)c1` [EH10600, 5-[5-(3-Chlorophenyloxy)pentyloxy]-2-(hydroxymethyl)-4H-pyran-4-one], for which the melting point is 87 to 88 °C. Further, in series [3], the “Cell architecture modification, actin staining NIH3T3, general observation” value is listed as “affected the general morphology; also recorded: cell destructuration”. Moreover, in series [4], the Colony formation result is on record as “−”.
In turn, `C/C=C/c1oc(CO)cc(=O)c1OCCCCCOc1ccc(Cl)c(Cl)c1` [EH30101] came in with a melting point of 100 to 101 °C.
Compound `C/C=C/c1oc(CO)cc(=O)c1OCCCCCOc1ccc(Cl)cc1` [EH26101, (E)-3-[5-(4-Chlorophenyloxy)pentyloxy]-6-(hydroxymethyl)-2(propen-1-yl)-4H-pyran-4-one] returned a melting point of 84 to 85 °C.
`CCCc1c(OCCCCCCOc2coc(CO)cc2=O)ccc(Cl)c1Cl` [EH16701, 5-[6-(3,4-Dichloro-2-propylphenyloxy)hexyloxy]-2-(hydroxymethyl)-4H-pyran-4-one] gave a melting point of 86 to 87 °C. For the same compound, the Invasion result in series [1] was “No significant effect”. Also, in series [2], the “Cell architecture modification, actin staining MDA231, general observation” value is “cell spreading”.
Take `CCOc1ccccc1OCCCCCOc1coc(CO)cc1=O` [EH18601, 5-[5-(2-Ethyloxyphenyloxy)pentyloxy]-2-(hydroxymethyl)-4H-pyran-4-one]: the melting point fell in the range of 75 to 76 °C. In addition, the Invasion result in series [1] is given as “No significant effect”.
As for `C/C=C/c1oc(C(=O)O)cc(=O)c1OCCCCCOc1ccc(Cl)cc1` [EH17401, (E)-3-[-5-(4-Chlorophenyloxy)pentyloxy]-2-(propen-1-yl)-4-oxo-4H-pyran-6-carboxylic acid], the melting point fell in the range of 136 to 137 °C.
In turn, `C/C=C/c1oc(C(=O)O)cc(=O)c1OCCCCCOc1cccc(Cl)c1` [EH18401, (E)-3-[5-(3-Chlorophenyloxy)pentyloxy]-2-(propen-1-yl)-4-oxo-4H-pyran-6-carboxylic acid] came in with a melting point of 116 to 117 °C.
For `O=C(O)c1cc(=O)c(OCCCCCOc2cccc(Cl)c2)co1` [EH15700, 5-[5-(3-Chlorophenyloxy)pentyloxy]-4-oxo-4H-pyran-2-carboxylic acid], the melting point lay within 160 to 161 °C.
The same measure, in the same setting: as for `CCCc1c(OCCCCCOc2coc(C(=O)O)cc2=O)ccc(Cl)c1Cl` [EH27900, 5-[5-(3,4-Dichloro-2-propylphenyloxy)pentyloxy]-4-oxo-4H-pyran-2-carboxylic acid], the figure is 155 to 156 °C.
